Key:
mice = details: single dose 150 mg/kg; Lerner and Harrison 1990; cited from earlier work
Dl-FRIL = target: T1, Dl-FRIL (Lablab purpureus, UniProt Q9ZTA9); details: Mo et al., Glycobiology 9:173-179,1999; cited from earlier work
T1 sequence (Q9ZTA9 9-272): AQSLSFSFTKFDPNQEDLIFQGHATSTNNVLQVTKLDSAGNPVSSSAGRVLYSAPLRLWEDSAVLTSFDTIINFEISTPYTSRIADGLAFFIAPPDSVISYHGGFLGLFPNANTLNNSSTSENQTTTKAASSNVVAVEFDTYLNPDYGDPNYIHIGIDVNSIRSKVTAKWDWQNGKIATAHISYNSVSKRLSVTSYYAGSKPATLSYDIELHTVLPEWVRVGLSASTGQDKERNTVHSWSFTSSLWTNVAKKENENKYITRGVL

[1] = target: FLT3 receptor on FLT3-transfected 3T3 cells (chimeric murine FLT3/human Fms receptor or full length human receptor, not told apart); test: cell-based or functional assay

O=c1[nH]cc(F)c(=O)[nH]1 [5-FU, 5-fluorouracil]
reduction of bone marrow cellularity (mice): > 90%

OC[C@H]1O[C@H](O[C@H]2O[C@H](CO)[C@@H](O)[C@H](O)[C@H]2O)[C@H](O)[C@@H](O)[C@@H]1O [α,α-trehalose]
potency greater than mannose (Dl-FRIL): 3.6 fold

Pv-FRIL (Phaseolus vulgaris FRIL), native, purified from PHA-LCM or from red kidney bean extract
Specific Activity (u/mg) in the Flt3 3T3 assay, after the Superdex 75 step [1]: 244000 units/mg
